Results on 7 compounds are retold here after PubChem BioAssay (NCI).

Several values for one entry are separate records, joined by “and”; a condition that tells them apart may be missing. Equal values may be shown once.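 These data come from cells grown in 96-well plates and exposed to compound for 48 hours at five concentrations. Here, GI50 denotes the concentration required for 50% inhibition of growth. TGI denotes the concentration required for complete inhibition of growth.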 Bounds are passed on as bounds.

In one assay the test system is CCRF-CEM leukemia. Put plainly: NCI-60 cell line screen, 48 h.
Consider `CCOC(=O)CNC(=O)c1ccccc1Nc1ccnc(C(F)(F)F)c1`, for which the GI50 was 7.97 µM and the TGI was > 37.9 µM.

With `COc1cc2c(c(OC)n1)[C@]1(O)[C@H](O)[C@H](CN(C)C)[C@@H](c3ccccc3)[C@]1(c1ccc(C#N)cc1)O2`, the GI50 is < 0.01 µM; the TGI was > 52.7 µM and 13.6 µM.

On to `C=CCSS/C=C/CS(=O)CC=C` (configuration not stated), for which the TGI was > 100 µM.

In the case of `Oc1cn(-c2ccc(Cl)cc2)nc1-c1n[nH]c(=S)n1C1CCCCC1`, the GI50 is 0.252 µM and the TGI is > 100 µM.

Consider `O=C(/C=C/c1cc(CN2CCOCC2)c(O)c2ncccc12)c1cc(CN2CCOCC2)c(O)c2ncccc12`, for which the GI50 was 0.05 µM and the TGI was > 100 µM.

With `C=C1C(=O)O[C@H]2[C@H]1CC/C(COC(=O)c1ccc(Cl)nc1)=C\CC[C@@]1(C)O[C@@H]21`, the GI50 was 1.22 µM and the TGI worked out at 6.9 µM.

With `COc1cc2ncn(-c3cc(OCCc4ccccc4)c(C(N)=O)s3)c2cc1OC`, the GI50 was 8.5 µM and the TGI is > 25 µM.

The test system of another assay is HCC-2998 colon. Put plainly: NCI-60 cell line screen, 48 h.
Regarding `CCOC(=O)CNC(=O)c1ccccc1Nc1ccnc(C(F)(F)F)c1`, the GI50 is 71.3 µM and the TGI was > 100 µM.

In the case of `COc1cc2c(c(OC)n1)[C@]1(O)[C@H](O)[C@H](CN(C)C)[C@@H](c3ccccc3)[C@]1(c1ccc(C#N)cc1)O2`, the GI50 was < 0.01 µM; the TGI was 0.564 µM and 0.81 µM.

For `C=CCSS/C=C/CS(=O)CC=C` (configuration not stated), the TGI was > 100 µM.

As to `Oc1cn(-c2ccc(Cl)cc2)nc1-c1n[nH]c(=S)n1C1CCCCC1`, the GI50 is 2.33 µM and the TGI amounted to 14.3 µM.

Regarding `O=C(/C=C/c1cc(CN2CCOCC2)c(O)c2ncccc12)c1cc(CN2CCOCC2)c(O)c2ncccc12`, the GI50 is 0.0506 µM and the TGI was > 100 µM.

As for `C=C1C(=O)O[C@H]2[C@H]1CC/C(COC(=O)c1ccc(Cl)nc1)=C\CC[C@@]1(C)O[C@@H]21`, the GI50 was 4.68 µM and the TGI was 18 µM.

Regarding `COc1cc2ncn(-c3cc(OCCc4ccccc4)c(C(N)=O)s3)c2cc1OC`, the GI50 is > 25 µM and the TGI is > 25 µM.

The subject of a further assay is HT29 colon. Put plainly: NCI-60 cell line screen, 48 h.
For `CCOC(=O)CNC(=O)c1ccccc1Nc1ccnc(C(F)(F)F)c1`, the GI50 was 44.4 µM and the TGI was > 100 µM.

Take `COc1cc2c(c(OC)n1)[C@]1(O)[C@H](O)[C@H](CN(C)C)[C@@H](c3ccccc3)[C@]1(c1ccc(C#N)cc1)O2`: the GI50 is < 0.01 µM; the TGI is 4.25 µM and 4.04 µM.

Regarding `C=CCSS/C=C/CS(=O)CC=C` (configuration not stated), the TGI is > 74.6 µM.

For the compound `Oc1cn(-c2ccc(Cl)cc2)nc1-c1n[nH]c(=S)n1C1CCCCC1`, the GI50 was 30.5 µM and the TGI is > 100 µM.

Regarding `O=C(/C=C/c1cc(CN2CCOCC2)c(O)c2ncccc12)c1cc(CN2CCOCC2)c(O)c2ncccc12`, the GI50 is 0.0695 µM and the TGI was > 100 µM.

Turning to `C=C1C(=O)O[C@H]2[C@H]1CC/C(COC(=O)c1ccc(Cl)nc1)=C\CC[C@@]1(C)O[C@@H]21`, the GI50 is 1.66 µM and the TGI worked out at 4.11 µM.

On to `COc1cc2ncn(-c3cc(OCCc4ccccc4)c(C(N)=O)s3)c2cc1OC`, for which the GI50 is 13.6 µM and the TGI is > 25 µM.

In the next assay the test system is NCI/ADR-RES ovarian. Put plainly: NCI-60 cell line screen, 48 h.
With `CCOC(=O)CNC(=O)c1ccccc1Nc1ccnc(C(F)(F)F)c1`, the GI50 is > 71.5 µM and the TGI is > 100 µM.

Turning to `COc1cc2c(c(OC)n1)[C@]1(O)[C@H](O)[C@H](CN(C)C)[C@@H](c3ccccc3)[C@]1(c1ccc(C#N)cc1)O2`, the GI50 was 0.0546 µM and 0.071 µM; the TGI was 3.89 µM and 2.93 µM.

On to `C=CCSS/C=C/CS(=O)CC=C` (configuration not stated), for which the TGI was found to be 74.5 µM.

`Oc1cn(-c2ccc(Cl)cc2)nc1-c1n[nH]c(=S)n1C1CCCCC1` yielded a TGI of 1.05 µM.

As to `O=C(/C=C/c1cc(CN2CCOCC2)c(O)c2ncccc12)c1cc(CN2CCOCC2)c(O)c2ncccc12`, the GI50 was 0.091 µM and the TGI was > 100 µM.

Regarding `C=C1C(=O)O[C@H]2[C@H]1CC/C(COC(=O)c1ccc(Cl)nc1)=C\CC[C@@]1(C)O[C@@H]21`, the GI50 is 5.03 µM and the TGI is 23.9 µM.

For `COc1cc2ncn(-c3cc(OCCc4ccccc4)c(C(N)=O)s3)c2cc1OC`, the GI50 is 14.8 µM and the TGI is > 25 µM.

For the next assay, the system named is SN12C renal. Put plainly: NCI-60 cell line screen, 48 h.
As for `CCOC(=O)CNC(=O)c1ccccc1Nc1ccnc(C(F)(F)F)c1`, the GI50 was 36.6 µM and the TGI is > 79.4 µM.

Take `COc1cc2c(c(OC)n1)[C@]1(O)[C@H](O)[C@H](CN(C)C)[C@@H](c3ccccc3)[C@]1(c1ccc(C#N)cc1)O2`: the GI50 is 0.0156 µM and < 0.0132 µM; the TGI was 1.94 µM and 1.61 µM.

Turning to `C=CCSS/C=C/CS(=O)CC=C` (configuration not stated), the TGI was > 65.9 µM.

For the compound `Oc1cn(-c2ccc(Cl)cc2)nc1-c1n[nH]c(=S)n1C1CCCCC1`, the GI50 is 2.43 µM and the TGI is > 100 µM.

For `O=C(/C=C/c1cc(CN2CCOCC2)c(O)c2ncccc12)c1cc(CN2CCOCC2)c(O)c2ncccc12`, the GI50 is 0.0673 µM and the TGI is > 100 µM.

Take `C=C1C(=O)O[C@H]2[C@H]1CC/C(COC(=O)c1ccc(Cl)nc1)=C\CC[C@@]1(C)O[C@@H]21`: the GI50 is 2.15 µM and the TGI came to 5.42 µM.

As for `COc1cc2ncn(-c3cc(OCCc4ccccc4)c(C(N)=O)s3)c2cc1OC`, the GI50 is 24.9 µM and the TGI is > 25 µM.

The next assay has as its system SNB-19 CNS. Put plainly: NCI-60 cell line screen, 48 h.
Regarding `CCOC(=O)CNC(=O)c1ccccc1Nc1ccnc(C(F)(F)F)c1`, the GI50 was 34.2 µM and the TGI is > 100 µM.

Turning to `COc1cc2c(c(OC)n1)[C@]1(O)[C@H](O)[C@H](CN(C)C)[C@@H](c3ccccc3)[C@]1(c1ccc(C#N)cc1)O2`, the GI50 is 0.0111 µM and 0.0104 µM; the TGI is 3.8 µM and 4.21 µM.

For the compound `C=CCSS/C=C/CS(=O)CC=C` (configuration not stated), the TGI was > 100 µM.

With `Oc1cn(-c2ccc(Cl)cc2)nc1-c1n[nH]c(=S)n1C1CCCCC1`, the GI50 was 0.416 µM and the TGI is > 44.8 µM.

In the case of `O=C(/C=C/c1cc(CN2CCOCC2)c(O)c2ncccc12)c1cc(CN2CCOCC2)c(O)c2ncccc12`, the GI50 was 0.0482 µM and the TGI is > 100 µM.

Regarding `C=C1C(=O)O[C@H]2[C@H]1CC/C(COC(=O)c1ccc(Cl)nc1)=C\CC[C@@]1(C)O[C@@H]21`, the GI50 was 7.55 µM and the TGI was 20.1 µM.

For the compound `COc1cc2ncn(-c3cc(OCCc4ccccc4)c(C(N)=O)s3)c2cc1OC`, the GI50 was > 25 µM and the TGI was > 25 µM.

A further assay concerns SR leukemia. Nature of the assay: NCI-60 cell line screen, 48 h.
For `CCOC(=O)CNC(=O)c1ccccc1Nc1ccnc(C(F)(F)F)c1`, the GI50 was 19 µM and the TGI turned out to be 57.8 µM.

For `COc1cc2c(c(OC)n1)[C@]1(O)[C@H](O)[C@H](CN(C)C)[C@@H](c3ccccc3)[C@]1(c1ccc(C#N)cc1)O2`, the GI50 is 0.0246 µM and < 0.0114 µM; the TGI was determined as 4.48 µM.

For `C=CCSS/C=C/CS(=O)CC=C` (configuration not stated), the TGI was > 55.6 µM.

On to `Oc1cn(-c2ccc(Cl)cc2)nc1-c1n[nH]c(=S)n1C1CCCCC1`, for which the GI50 is < 0.0413 µM and the TGI is > 100 µM.

With `O=C(/C=C/c1cc(CN2CCOCC2)c(O)c2ncccc12)c1cc(CN2CCOCC2)c(O)c2ncccc12`, the GI50 was 0.0463 µM and the TGI was > 100 µM.

Consider `C=C1C(=O)O[C@H]2[C@H]1CC/C(COC(=O)c1ccc(Cl)nc1)=C\CC[C@@]1(C)O[C@@H]21`, for which the GI50 is 0.658 µM and the TGI was determined as 38.8 µM.

For the compound `COc1cc2ncn(-c3cc(OCCc4ccccc4)c(C(N)=O)s3)c2cc1OC`, the GI50 was 13.6 µM and the TGI is > 25 µM.

The test system of the next assay is SW-620 colon. Nature of the assay: NCI-60 cell line screen, 48 h.
Take `CCOC(=O)CNC(=O)c1ccccc1Nc1ccnc(C(F)(F)F)c1`: the GI50 was 29.9 µM and the TGI was > 74.4 µM.

Regarding `COc1cc2c(c(OC)n1)[C@]1(O)[C@H](O)[C@H](CN(C)C)[C@@H](c3ccccc3)[C@]1(c1ccc(C#N)cc1)O2`, the GI50 is 0.0124 µM and < 0.01 µM; the TGI is 3.37 µM and 10.4 µM.

Compound `C=CCSS/C=C/CS(=O)CC=C` (configuration not stated) showed a TGI of 22.7 µM.

For the compound `Oc1cn(-c2ccc(Cl)cc2)nc1-c1n[nH]c(=S)n1C1CCCCC1`, the GI50 was 0.475 µM and the TGI is > 100 µM.

In the case of `O=C(/C=C/c1cc(CN2CCOCC2)c(O)c2ncccc12)c1cc(CN2CCOCC2)c(O)c2ncccc12`, the GI50 was < 0.0186 µM and the TGI was > 100 µM.

For `C=C1C(=O)O[C@H]2[C@H]1CC/C(COC(=O)c1ccc(Cl)nc1)=C\CC[C@@]1(C)O[C@@H]21`, the GI50 was 1.23 µM and the TGI was determined as 2.96 µM.

As for `COc1cc2ncn(-c3cc(OCCc4ccccc4)c(C(N)=O)s3)c2cc1OC`, the GI50 is > 25 µM and the TGI was > 25 µM.

Another assay has as its system U251 CNS. Put plainly: NCI-60 cell line screen, 48 h.
In the case of `CCOC(=O)CNC(=O)c1ccccc1Nc1ccnc(C(F)(F)F)c1`, the GI50 is 34.3 µM and the TGI was > 62.1 µM.

Turning to `COc1cc2c(c(OC)n1)[C@]1(O)[C@H](O)[C@H](CN(C)C)[C@@H](c3ccccc3)[C@]1(c1ccc(C#N)cc1)O2`, the GI50 was 0.02 µM and < 0.0111 µM; the TGI is 2.39 µM and 7.95 µM.

Turning to `C=CCSS/C=C/CS(=O)CC=C` (configuration not stated), the TGI is > 100 µM.

With `Oc1cn(-c2ccc(Cl)cc2)nc1-c1n[nH]c(=S)n1C1CCCCC1`, the GI50 was 0.467 µM and the TGI is > 100 µM.

Turning to `O=C(/C=C/c1cc(CN2CCOCC2)c(O)c2ncccc12)c1cc(CN2CCOCC2)c(O)c2ncccc12`, the GI50 is < 0.0172 µM and the TGI is 4.95 µM.

For `C=C1C(=O)O[C@H]2[C@H]1CC/C(COC(=O)c1ccc(Cl)nc1)=C\CC[C@@]1(C)O[C@@H]21`, the GI50 is 4.85 µM and the TGI is 15.9 µM.

As to `COc1cc2ncn(-c3cc(OCCc4ccccc4)c(C(N)=O)s3)c2cc1OC`, the GI50 is > 25 µM and the TGI was > 25 µM.

A further assay deals with UACC-62 melanoma. Nature of the assay: NCI-60 cell line screen, 48 h.
With `CCOC(=O)CNC(=O)c1ccccc1Nc1ccnc(C(F)(F)F)c1`, the GI50 was 22.4 µM and the TGI was > 61.2 µM.

In the case of `COc1cc2c(c(OC)n1)[C@]1(O)[C@H](O)[C@H](CN(C)C)[C@@H](c3ccccc3)[C@]1(c1ccc(C#N)cc1)O2`, the GI50 was 0.0359 µM and 0.0358 µM; the TGI was 2.63 µM and 4.34 µM.

With `C=CCSS/C=C/CS(=O)CC=C` (configuration not stated), the TGI is > 82.7 µM.

As for `Oc1cn(-c2ccc(Cl)cc2)nc1-c1n[nH]c(=S)n1C1CCCCC1`, the TGI is > 100 µM.

`O=C(/C=C/c1cc(CN2CCOCC2)c(O)c2ncccc12)c1cc(CN2CCOCC2)c(O)c2ncccc12`: the GI50 was 0.0457 µM.

Take `C=C1C(=O)O[C@H]2[C@H]1CC/C(COC(=O)c1ccc(Cl)nc1)=C\CC[C@@]1(C)O[C@@H]21`: the GI50 is 1.63 µM and the TGI worked out at 3.74 µM.

Regarding `COc1cc2ncn(-c3cc(OCCc4ccccc4)c(C(N)=O)s3)c2cc1OC`, the GI50 is > 25 µM and the TGI was > 25 µM.
